{"source": "patent US20240207285A1", "about": "(Melt Pharmaceuticals, Inc., priority 2022, published 2024)", "key": {"healthy adult subjects [1]": {"tested_on": "healthy adult subjects", "test": "Phase 1 vital signs and pulse oximetry", "assay_type": "in vivo, human", "settings": "for Mean changes from baseline in systolic and diastolic blood pressures: MELT-100 3/25 mg and 6/25 mg (so in the source), midazolam 3.5 mg IV, ketamine 18 mg IV, each timepoint", "source_text": "(§1) The Investigator evaluated safety using physical and oral examinations, O2 saturation (SpO2), vital sign measurements, clinical laboratory evaluations, electrocardiograms (ECGs), reported or observed adverse events (AEs), and assessments of neurocognitive function. Subjects were monitored for any AEs from the first dose through the end of the study.\n(§2) Vital signs, clinical laboratory values (hematology, serum chemistry, and urinalysis), and 12-lead ECG parameters were summarized by treatment including any abnormal values flagged."}, "healthy adult subjects [2]": {"tested_on": "healthy adult subjects", "test": "Phase 1 sedation level by Ramsay sedation scale (RSS)", "assay_type": "in vivo, human", "protocol": "(§3) Pharmacodynamic parameters included sedation, defined as time to onset of sedation and sedation level, assessed using the Ramsay sedation scale (RSS), and cardiodynamics assessed by QTcF, heart rate, and PR and QRS intervals, and T-wave morphology and U-wave presence, extracted from ECGs collected via Holter monitor from predose through 24 hours postdose.\nAll pharmacodynamic analyses were performed on data from the Safety Population. The RSS scores were summarized by treatment and by timepoint. Time to onset of sedation was summarized by treatment and presented graphically."}, "healthy adult subjects [3]": {"tested_on": "healthy adult subjects", "test": "Phase 1 adverse events", "assay_type": "in vivo, human", "source_text": "as §1\nAdverse events were coded using the Medical Dictionary for Regulatory Activities (MedDRA, version 22.0, or later) terms and summarized by system organ class (SOC) and preferred term (PT) within SOC. The number and percentage of subjects reporting TEAEs were summarized by reported SOC and PT for each treatment and the population overall. TEAEs were also summarized by maximum severity and nearest relationship to study drug, by SOC and PT for each treatment.\nA by-subject AE (including treatment-emergent) data listing, including but not limited to verbatim term, SOC, PT, severity, and relationship to study treatment, was provided. Deaths, SAEs, and other significant AEs, including those leading to early termination of study treatments were listed."}, "[4]": {"test": "Phase 1 relative bioavailability study: plasma pharmacokinetics of midazolam, 1-hydroxymidazolam, ketamine and norketamine", "protocol": "PK analysis was performed using noncompartmental methods in Phoenix WinNonlin® (Version 8.1, Certara, L.P.) in conjunction with the internet-accessible implementation of the Pharsight® Knowledgebase Server™ (PKSO; Version 4.0.4, Certara, L.P). PKSO provides protected and structured storage, audit trails, and version control for study data, analyses, and related files, supporting 21 CFR Part 11 compliance. The analysis was performed in accordance with the Statistical Analysis Plan (Version 1.0, 5 Jan. 2021).\nDuring the PK analysis, concentrations below the limit of quantitation (BLQ) up to the time of the first quantifiable concentration were treated as zero. Embedded (values between 2 quantifiable concentrations) and terminal BLQ concentrations were treated as “missing”. Calculation of the PK characteristics were based on actual elapsed times [h] (relative to time of dose).\nAll PK analyses were performed on the data from the PK Analysis Population. […] The ANOVA model included factors for sequence, subject within sequence, treatment, and period."}, "healthy adult subjects [5]": {"tested_on": "healthy adult subjects", "test": "Phase 1 electrocardiograms / cardiodynamics", "assay_type": "in vivo, human", "settings": "one subject, 24 hours after midazolam 3.5 mg IV; not considered clinically significant", "protocol": "as §3\nAn analysis of categorical outliers was performed for changes in heart rate; PR, QRS, and QTcF intervals; T-wave morphology; and U-wave presence.\nas §2"}, "[6]": {"settings": "5 minutes after ketamine 18 mg IV"}, "[7]": {"settings": "Treatment D: ketamine 18 mg IV, mean"}, "[8]": {"settings": "Treatment C: midazolam 3.5 mg IV, mean"}}}
{"compound": "CNC1(c2ccccc2Cl)CCCCC1=O", "note": "(centres unmarked) [Ketamine, 2-(2-chlorophenyl)-2-(methylamino)cyclohexanone]", "values": [{"measurement": "Mean changes from baseline in systolic and diastolic blood pressures", "setting": "healthy adult subjects [1]", "value": "highest at the 10-minute timepoint"}, {"measurement": "Subjects with RSS score of 1", "setting": "healthy adult subjects [2]; [6]", "value": "1 (4.0%) subjects (%)"}, {"measurement": "Subjects with RSS score of 5", "setting": "healthy adult subjects [2]; [6]", "value": "1 (4.0%) subjects (%)"}, {"measurement": "Highest proportion of subjects with RSS scores >2 postdose", "setting": "healthy adult subjects [2]; ketamine 18 mg IV", "value": "~8", "unit": "%"}, {"measurement": "Treatment-related AEs of hypertension", "setting": "healthy adult subjects [3]; ketamine 18 mg IV", "value": 3, "unit": "AEs"}, {"measurement": "AUCExtrap, ketamine", "setting": "[4]; [7]", "value": 9.64, "unit": "%"}, {"measurement": "CL, ketamine", "setting": "[4]; [7]", "value": 59.9, "unit": "L/h"}, {"measurement": "Clast, ketamine", "setting": "[4]; [7]", "value": 1.99, "unit": "ng/mL"}, {"measurement": "half-life", "setting": "[4]; human, plasma, iv, 18 mg", "value": 618, "unit": "min"}, {"measurement": "AUC(0-t)", "setting": "[4]; human, plasma, iv, 18 mg, AUC0-t, ketamine, Treatment D: ketamine 18 mg IV, mean", "value": 283, "unit": "ng·h/mL"}, {"measurement": "AUC(0-inf)", "setting": "[4]; human, plasma, iv, 18 mg, AUCinf, ketamine, Treatment D: ketamine 18 mg IV, mean", "value": 316, "unit": "ng·h/mL"}, {"measurement": "Cmax", "setting": "[4]; human, plasma, iv, 18 mg, Cmax, ketamine, Treatment D: ketamine 18 mg IV, mean", "value": 250, "unit": "ng/mL"}, {"measurement": "AUC(0-t)", "setting": "[4]; human, plasma, iv, 18 mg, GeoMean AUC0-t, ketamine, Ref (D) ketamine 18 mg IV, least squares geometric mean", "value": 277, "unit": "ng·h/mL"}, {"measurement": "AUC(0-inf)", "setting": "[4]; human, plasma, iv, 18 mg, GeoMean AUCinf, ketamine, Ref (D) ketamine 18 mg IV, least squares geometric mean", "value": 307, "unit": "ng·h/mL"}, {"measurement": "Cmax", "setting": "[4]; human, plasma, iv, 18 mg, GeoMean Cmax, ketamine, Ref (D) ketamine 18 mg IV, least squares geometric mean", "value": 208, "unit": "ng/mL"}, {"measurement": "Tmax", "setting": "[4]; human, plasma, iv, 18 mg, Tmax, ketamine, Treatment D: ketamine 18 mg IV, median (range)", "value": 10, "unit": "min"}]}
{"compound": "Cc1ncc2n1-c1ccc(Cl)cc1C(c1ccccc1F)=NC2", "note": "[Midazolam, 8-chloro-6-(2-fluorophenyl)-1-methyl-4H-imidazo[1,5-a][1,4]benzodiazepine]", "values": [{"measurement": "Mean changes from baseline in systolic and diastolic blood pressures", "setting": "healthy adult subjects [1]", "value": "minimal and similar"}, {"measurement": "Mean change from baseline in pulse oximetry", "setting": "healthy adult subjects [1]; midazolam 3.5 mg IV at 10 minutes postdose, MELT-100 6/50 mg at 30 minutes postdose, minimal at 2 hours", "value": "small mean decrease from baseline"}, {"measurement": "PR duration", "setting": "healthy adult subjects [5]", "value": "abnormal"}, {"measurement": "Subjects with RSS scores of 3", "setting": "healthy adult subjects [2]; 5 minutes after midazolam 3.5 mg IV", "value": "2 (8.3%) subjects (%)"}, {"measurement": "Highest proportion of subjects with RSS scores >2 postdose", "setting": "healthy adult subjects [2]; midazolam 3.5 mg IV", "value": "~54", "unit": "%"}, {"measurement": "Number of treatment-related AEs", "setting": "healthy adult subjects [3]; midazolam 3.5 mg IV", "value": 2, "unit": "events"}, {"measurement": "AUCExtrap, midazolam", "setting": "[4]; [8]", "value": 5.58, "unit": "%"}, {"measurement": "Clast, midazolam", "setting": "[4]; [8]", "value": 0.963, "unit": "ng/mL"}, {"measurement": "Vd", "setting": "[4]; human, plasma, iv, 3.5 mg", "value": 202, "unit": "L"}, {"measurement": "clearance", "setting": "[4]; human, plasma, iv, 3.5 mg", "value": 348, "unit": "mL/min"}, {"measurement": "half-life", "setting": "[4]; human, plasma, iv, 3.5 mg", "value": 420, "unit": "min"}, {"measurement": "AUC(0-t)", "setting": "[4]; human, plasma, iv, 3.5 mg, AUC0-t, midazolam, Treatment C: midazolam 3.5 mg IV, mean", "value": 168, "unit": "ng·h/mL"}, {"measurement": "AUC(0-inf)", "setting": "[4]; human, plasma, iv, 3.5 mg, AUCinf, midazolam, Treatment C: midazolam 3.5 mg IV, mean", "value": 179, "unit": "ng·h/mL"}, {"measurement": "Cmax", "setting": "[4]; human, plasma, iv, 3.5 mg, Cmax, midazolam, Treatment C: midazolam 3.5 mg IV, mean", "value": 146, "unit": "ng/mL"}, {"measurement": "AUC(0-t)", "setting": "[4]; human, plasma, iv, 3.5 mg, GeoMean AUC0-t, midazolam, Ref (C) midazolam 3.5 mg IV, least squares geometric mean", "value": 164, "unit": "ng·h/mL"}, {"measurement": "AUC(0-inf)", "setting": "[4]; human, plasma, iv, 3.5 mg, GeoMean AUCinf, midazolam, Ref (C) midazolam 3.5 mg IV, least squares geometric mean", "value": 174, "unit": "ng·h/mL"}, {"measurement": "Cmax", "setting": "[4]; human, plasma, iv, 3.5 mg, GeoMean Cmax, midazolam, Ref (C) midazolam 3.5 mg IV, least squares geometric mean", "value": 127, "unit": "ng/mL"}, {"measurement": "Tmax", "setting": "[4]; human, plasma, iv, 3.5 mg, Median Tmax, midazolam, Treatment C: midazolam 3.5 mg IV", "value": 11, "unit": "min"}, {"measurement": "Tmax", "setting": "[4]; human, plasma, iv, 3.5 mg, Tmax, midazolam, Treatment C: midazolam 3.5 mg IV, median (range)", "value": 11, "unit": "min"}]}
